{"source": "patent EP0090204A1", "about": "“Optically active levorotatory derivatives of phenoxy-benzoic acid, method for their preparation and their use as herbicides” (BAYER AG, priority 1982, dated 1983)", "assay_type_in_all_cases": "in vivo", "key": {"Testpflanzen [1]": {"test_system": "Testpflanzen", "assay": "Post-emergence test, overall comparison", "conditions": "compared with the corresponding racemic compounds (A) and (B)", "from_the_text": "(§1) Zur Herstellung einer zweckmäßigen Wirkstoffzubereitung vermischt man 1 Gewichtsteil Wirkstoff mit der angegebenen Menge Lösungsmittel, gibt die angegebene Menge Emulgator zu und verdünnt das Konzentrat mit Wasser auf die gewünschte Konzentration.\n(§2) Mit der Wirkstoffzubereitung spritzt man Testpflanzen, welche eine Höhe von 5 - 15 cm haben so, daß die jeweils gewünschten Wirkstoffmengen pro Flächeneinheit ausgebracht werden. Die Konzentration der Spritzbrühe wird so gewählt, daß in 2000 1 Wasser/ha die jeweils gewünschten Wirkstoffmengen ausgebracht werden. Nach drei Wochen wird der Schädigungsgrad der Pflanzen bonitiert in % Schädigung im Vergleich zur Entwicklung der unbehandelten Kontrolle."}, "Testpflanzen [2]": {"test_system": "Testpflanzen", "assay": "Pre-emergence test, overall comparison", "conditions": "compared with the corresponding racemic compounds (A) and (B)", "from_the_text": "as §1\n(§3) Samen der Testpflanzen werden in normalen Boden ausgesät und nach 24 Stunden mit der Wirkstoffzubereitung begossen. Dabei hält man die Wassermenge pro Flächeneinheit zweckmäßigerweise konstant. Die Wirkstoffkonzentration in der Zubereitung spielt keine Rolle, entscheidend ist nur die Aufwandmenge des Wirkstoffs pro Flächeneinheit. Nach drei Wochen wird der Schädigungsgrad der Pflanzen bonitiert in % Schädigung im Vergleich zur Entwicklung der unbehandelten Kontrolle."}, "Monocotyledoneae [3]": {"test_system": "Monocotyledoneae", "assay": "Post-emergence test", "conditions": "% damage vs untreated control after three weeks, average effect on several monocots", "from_the_text": "as §1, §2"}, "Rüben [4]": {"test_system": "Rüben", "assay": "Post-emergence test", "conditions": "% damage vs untreated control after three weeks", "from_the_text": "as §1, §2"}, "Dicotyledoneae [5]": {"test_system": "Dicotyledoneae", "assay": "Post-emergence test", "conditions": "% damage vs untreated control after three weeks, average effect on several dicots", "from_the_text": "as §1, §2"}, "Soja [6]": {"test_system": "Soja", "assay": "Post-emergence test", "conditions": "% damage vs untreated control after three weeks", "from_the_text": "as §1, §2"}, "Mais [7]": {"test_system": "Mais", "assay": "Post-emergence test", "conditions": "% damage vs untreated control after three weeks", "from_the_text": "as §1, §2"}, "Monocotyledoneae [8]": {"test_system": "Monocotyledoneae", "assay": "Pre-emergence test", "conditions": "% damage vs untreated control after three weeks, average effect on several monocots", "from_the_text": "as §1, §3"}, "Rüben [9]": {"test_system": "Rüben", "assay": "Pre-emergence test", "conditions": "% damage vs untreated control after three weeks", "from_the_text": "as §1, §3"}, "Dicotyledoneae [10]": {"test_system": "Dicotyledoneae", "assay": "Pre-emergence test", "conditions": "% damage vs untreated control after three weeks, average effect on several dicots", "from_the_text": "as §1, §3"}, "Soja [11]": {"test_system": "Soja", "assay": "Pre-emergence test", "conditions": "% damage vs untreated control after three weeks", "from_the_text": "as §1, §3"}, "Mais [12]": {"test_system": "Mais", "assay": "Pre-emergence test", "conditions": "% damage vs untreated control after three weeks", "from_the_text": "as §1, §3"}}}
{"smiles": "CCOC(=O)[C@@H](C)OC(=O)c1cc(Oc2ccc(C(F)(F)F)cc2Cl)ccc1[N+](=O)[O-]", "note": "[(2), 5-(2-Chlor-4-trifluormethyl-phenoxy)-2-nitro-benzoesäure-(1-ethoxycarbonyl-ethyl)-esters]", "values": [{"measurement": "herbizide Wirksamkeit", "setting": "Testpflanzen [1]", "result": "bessere herbizide Wirksamkeit"}, {"measurement": "herbizide Wirksamkeit", "setting": "Testpflanzen [2]", "result": "bessere herbizide Wirksamkeit"}, {"measurement": "Wirkung (in %) Monocotyledoneae", "setting": "Monocotyledoneae [3]; 0,75 kg/ha", "result": "86,3%"}, {"measurement": "Wirkung (in %) Rüben", "setting": "Rüben [4]; 0,75 kg/ha", "result": 100, "unit": "%"}, {"measurement": "Wirkung (in %) Dicotyledoneae", "setting": "Dicotyledoneae [5]; 0,75 kg/ha", "result": "99,3%"}, {"measurement": "Wirkung (in %) Soja", "setting": "Soja [6]; 0,75 kg/ha", "result": 99, "unit": "%"}, {"measurement": "Wirkung (in %) Mais", "setting": "Mais [7]; 0,75 kg/ha", "result": 99, "unit": "%"}, {"measurement": "Wirkung (in %) Monocotyledoneae", "setting": "Monocotyledoneae [8]; 0,75 kg/ha", "result": "80,7%"}, {"measurement": "Wirkung (in %) Rüben", "setting": "Rüben [9]; 0,75 kg/ha", "result": 99, "unit": "%"}, {"measurement": "Wirkung (in %) Dicotyledoneae", "setting": "Dicotyledoneae [10]; 0,75 kg/ha", "result": "74,3%"}, {"measurement": "Wirkung (in %) Soja", "setting": "Soja [11]; 0,75 kg/ha", "result": 0, "unit": "%"}, {"measurement": "Wirkung (in %) Mais", "setting": "Mais [12]; 0,75 kg/ha", "result": 0, "unit": "%"}]}
{"smiles": "CCOC(=O)[C@@H](C)OC(=O)c1cc(Oc2c(Cl)cc(C(F)(F)F)cc2Cl)ccc1[N+](=O)[O-]", "note": "[(1), 5-(2,6-Dichlor-4-trifluormethyl-phenoxy)-2-nitro-benzoesäure-(1-ethoxycarbonylethyl)-esters]", "values": [{"measurement": "herbizide Wirksamkeit", "setting": "Testpflanzen [1]", "result": "bessere herbizide Wirksamkeit"}, {"measurement": "herbizide Wirksamkeit", "setting": "Testpflanzen [2]", "result": "bessere herbizide Wirksamkeit"}, {"measurement": "Wirkung (in %) Monocotyledoneae", "setting": "Monocotyledoneae [3]; 0,6 kg/ha", "result": "81,1%"}, {"measurement": "Wirkung (in %) Rüben", "setting": "Rüben [4]; 0,6 kg/ha", "result": 100, "unit": "%"}, {"measurement": "Wirkung (in %) Dicotyledoneae", "setting": "Dicotyledoneae [5]; 0,6 kg/ha", "result": "99,3%"}, {"measurement": "Wirkung (in %) Soja", "setting": "Soja [6]; 0,6 kg/ha", "result": 100, "unit": "%"}, {"measurement": "Wirkung (in %) Mais", "setting": "Mais [7]; 0,6 kg/ha", "result": 80, "unit": "%"}, {"measurement": "Wirkung (in %) Monocotyledoneae", "setting": "Monocotyledoneae [8]; 0,6 kg/ha", "result": "79,3%"}, {"measurement": "Wirkung (in %) Rüben", "setting": "Rüben [9]; 0,6 kg/ha", "result": 100, "unit": "%"}, {"measurement": "Wirkung (in %) Dicotyledoneae", "setting": "Dicotyledoneae [10]; 0,6 kg/ha", "result": "92,7%"}, {"measurement": "Wirkung (in %) Soja", "setting": "Soja [11]; 0,6 kg/ha", "result": 10, "unit": "%"}, {"measurement": "Wirkung (in %) Mais", "setting": "Mais [12]; 0,6 kg/ha", "result": 10, "unit": "%"}]}
